The values that follow come from patent US9388140B2, “Substituted benzimidazoles” (priority 2011, dated 2016).

In general, IC50 refers to the concentration that gives 50% inhibition.

Chain of human kinase Mps-1 (P33981 whole entry): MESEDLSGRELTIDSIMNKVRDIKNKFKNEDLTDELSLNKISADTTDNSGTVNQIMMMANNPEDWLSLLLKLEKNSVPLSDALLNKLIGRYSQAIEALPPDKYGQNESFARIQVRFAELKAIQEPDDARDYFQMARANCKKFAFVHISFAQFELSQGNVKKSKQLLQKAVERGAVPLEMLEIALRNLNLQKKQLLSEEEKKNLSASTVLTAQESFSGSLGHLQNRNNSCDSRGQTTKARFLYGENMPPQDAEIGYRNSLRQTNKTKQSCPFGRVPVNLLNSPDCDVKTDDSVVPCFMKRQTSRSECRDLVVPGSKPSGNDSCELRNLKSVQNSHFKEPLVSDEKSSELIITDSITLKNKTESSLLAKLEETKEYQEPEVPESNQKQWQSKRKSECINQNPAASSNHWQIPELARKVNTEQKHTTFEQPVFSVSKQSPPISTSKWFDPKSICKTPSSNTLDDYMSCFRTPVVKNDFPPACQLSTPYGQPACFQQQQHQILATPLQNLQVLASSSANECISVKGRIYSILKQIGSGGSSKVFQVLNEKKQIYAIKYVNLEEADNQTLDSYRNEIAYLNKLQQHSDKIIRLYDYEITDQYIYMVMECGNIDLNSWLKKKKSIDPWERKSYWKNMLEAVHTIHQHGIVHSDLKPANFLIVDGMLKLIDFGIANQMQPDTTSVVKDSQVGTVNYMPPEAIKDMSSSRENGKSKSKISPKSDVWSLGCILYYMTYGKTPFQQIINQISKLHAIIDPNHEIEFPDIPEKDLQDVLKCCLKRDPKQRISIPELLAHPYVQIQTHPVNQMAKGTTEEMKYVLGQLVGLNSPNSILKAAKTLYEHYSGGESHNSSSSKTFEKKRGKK

The test has as its target human kinase Mps-1 (Homo sapiens (Human), UniProt P33981). Put plainly: Mps-1 kinase assay (TR-FRET). It is filed as biochemical. The conditions noted are these: N-terminally GST-tagged human full length recombinant Mps-1; 10 μM ATP; 1 μM biotinylated peptide substrate; read-out: Mps1 IC50. Here is the method: The human kinase Mps-1 phosphorylates a biotinylated substrate peptide. Detection of the phosphorylated product is achieved by time-resolved fluorescence resonance energy transfer (TR-FRET) from Europium-labelled anti-phospho-Serine/Threonine antibody as donor to streptavidin labelled with cross-linked allophycocyanin (SA-XLent) as acceptor. Compounds are tested for their inhibition of the kinase activity.
N-terminally GST-tagged human full length recombinant Mps-1 kinase (purchased from Invitrogen, Karslruhe, Germany, cat. no PV4071) was used. As substrate for the kinase reaction a biotinylated peptide of the amino-acid sequence […] (C-terminus in amide form, purchased from Biosynthan GmbH, Berlin) was used.
The concentration of Mps-1 in the assay was adjusted to the activity of the enzyme lot and was chosen appropriate to have the assay in the linear range, typical enzyme concentrations were in the range of about 1 nM (final conc. in the 5 μl assay volume).
The resulting mixture was incubated 1 h at 22° C. to allow the binding of the phosphorylated peptide to the anti-phospho(Ser/Thr)-Europium-antibody. Subsequently the amount of phosphorylated substrate was evaluated by measurement of the resonance energy transfer from the Europium-labelled anti-phospho(Ser/Thr) antibody to the Streptavidin-XLent.
(In general: Time-resolved FRET reads energy transfer from a long-lived donor to a nearby acceptor.)
As for `CCNC(=O)c1ccc(-c2cc(NCCC(F)(F)F)c3ncn(-c4ccc(C(=O)NC5CC5)c(C)c4)c3c2)cc1C` [Example 53, 4-{1-[4-(Cyclopropylcarbamoyl)-3-methylphenyl]-4-[(3,3,3-trifluoropropyl)amino]-1H-benzimidazol-6-yl}-N-ethyl-2-methylbenzamide], the IC50 amounted to 1.9 nM. Next, `Cc1cc(-n2cnc3c(NCCC(F)(F)F)cc(Oc4ccccc4O)cc32)ccc1C(=O)NC1CC1` [Example 54, N-cyclopropyl-4-{6-(2-hydroxyphenoxy)-4-[(3,3,3-trifluoropropyl)amino]-1H-benzimidazol-1-yl}-2-methylbenzamide]: 0.2 nM. As to `CCNC(=O)c1ccc(-n2cnc3c(NCCC(F)(F)F)cc(Oc4ccccc4O)cc32)cc1C` [Example 55, N-ethyl-4-{6-(2-hydroxyphenoxy)-4-[(3,3,3-trifluoropropyl)amino]-1H-benzimidazol-1-yl}-2-methylbenzamide], the IC50 was determined as 0.7 nM. Next, `CNC(=O)c1ccc(-n2cnc3c(NCCC(F)(F)F)cc(Oc4ccccc4O)cc32)cc1C` [Example 56, 4-{6-(2-hydroxyphenoxy)-4-[(3,3,3-trifluoropropyl)amino]-1H-benzimidazol-1-yl}-N,2-dimethylbenzamide]: 0.3 nM. Next, `COc1c(F)cccc1Oc1cc(NCCC(F)(F)F)c2ncn(-c3ccc(C(=O)NC4CC4)c(C)c3)c2c1` [Example 57, N-cyclopropyl-4-{6-(3-fluoro-2-methoxyphenoxy)-4-[(3,3,3-trifluoropropyl)amino]-1H-benzimidazol-1-yl}-2-methylbenzamide]: 6.8 nM; `Cc1cc(-n2cnc3c(NCCC(F)(F)F)cc(Oc4cccc(OC(F)(F)F)c4)cc32)ccc1C(=O)NC1CC1` [Example 59, N-cyclopropyl-2-methyl-4-{6-[3-(trifluoromethoxy)phenoxy]-4-[(3,3,3-trifluoropropyl)amino]-1H-benzimidazol-1-yl}benzamide]: 11.9 nM; `Cc1cc(-n2cnc3c(NCCC(F)(F)F)cc(Oc4ccc(N5CCOCC5)cc4)cc32)ccc1C(=O)NC1CC1` [Example 60, N-cyclopropyl-2-methyl-4-{6-[4-(morpholin-4-yl)phenoxy]-4-[(3,3,3-trifluoropropyl)amino]-1H-benzimidazol-1-yl}benzamide]: 11.5 nM. Next, `Cc1cc(-n2cnc3c(NCCC(F)(F)F)cc(Oc4ccc(OC(F)F)cc4)cc32)ccc1C(=O)NC1CC1` [Example 61, N-cyclopropyl-4-{6-[4-(difluoromethoxy)phenoxy]-4-[(3,3,3-trifluoropropyl)amino]-1H-benzimidazol-1-yl}-2-methylbenzamide]: 1.3 nM. As for `Cc1cc(-n2cnc3c(NCCC(F)(F)F)cc(Oc4cccc(OC(F)F)c4)cc32)ccc1C(=O)NC1CC1` [Example 62, N-cyclopropyl-4-{6-[3-(difluoromethoxy)phenoxy]-4-[(3,3,3-trifluoropropyl)amino]-1H-benzimidazol-1-yl}-2-methylbenzamide], the IC50 was determined as 3.2 nM.

On to `COc1ccccc1Nc1cc(NCCC(F)(F)F)c2ncn(-c3ccc(C(=O)NC4CC4)c(C)c3)c2c1` [Example 63, N-cyclopropyl-4-{6-[(2-methoxyphenyl)amino]-4-[(3,3,3-trifluoropropyl)amino]-1H-benzimidazol-1-yl}-2-methylbenzamide], for which the IC50 was found to be 18.9 nM. Next, `Cc1cc(-n2cnc3c(NCCC(F)(F)F)cc(Oc4cccc(S(C)(=O)=O)c4)cc32)ccc1C(=O)NC1CC1` [Example 64, N-cyclopropyl-2-methyl-4-{6-[3-(methylsulfonyl)phenoxy]-4-[(3,3,3-trifluoropropyl)amino]-1H-benzimidazol-1-yl}benzamide]: 2.6 nM. Next, `COc1cccc(Nc2cc(NCCC(F)(F)F)c3ncn(-c4ccc(C(=O)NC5CC5)c(C)c4)c3c2)c1C` [Example 65, N-cyclopropyl-4-{6-[(3-methoxy-2-methylphenyl)amino]-4-[(3,3,3-trifluoropropyl)amino]-1H-benzimidazol-1-yl}-2-methylbenzamide]: 2.8 nM; `CCNC(=O)c1ccc(-n2cnc3c(NCCC(F)(F)F)cc(Oc4cccc(F)c4F)cc32)cc1C` [Example 66, 4-{6-(2,3-difluorophenoxy)-4-[(3,3,3-trifluoropropyl)amino]-1H-benzimidazol-1-yl}-N-ethyl-2-methylbenzamide]: 2.1 nM. Turning to `CNC(=O)c1ccc(-n2cnc3c(NCCC(F)(F)F)cc(Oc4cccc(F)c4F)cc32)cc1C` [Example 67, 4-{6-(2,3-difluorophenoxy)-4-[(3,3,3-trifluoropropyl)amino]-1H-benzimidazol-1-yl}-N,2-dimethylbenzamide], the IC50 amounted to 1 nM. In the case of `CNC(=O)c1ccc(-n2cnc3c(NCCC(F)(F)F)cc(Oc4cccc(OC)c4)cc32)cc1C` [Example 68, 4-{6-(3-methoxyphenoxy)-4-[(3,3,3-trifluoropropyl)amino]-1H-benzimidazol-1-yl}-N, 2-dimethylbenzamide], the IC50 was 8.8 nM. Then `CCNC(=O)c1ccc(-n2cnc3c(NCCC(F)(F)F)cc(Oc4cccc(OC)c4)cc32)cc1C` [Example 69, N-ethyl-4-{6-(3-methoxyphenoxy)-4-[(3,3,3-trifluoropropyl)amino]-1H-benzimidazol-1-yl}-2-methylbenzamide], with 25.9 nM; and `COc1cccc(Oc2cc(NCCC(F)(F)F)c3ncn(-c4ccc(C(=O)NC5CC5)c(C)c4)c3c2)c1` [Example 70, N-cyclopropyl-4-{6-(3-methoxyphenoxy)-4-[(3,3,3-trifluoropropyl)amino]-1H-benzimidazol-1-yl}-2-methylbenzamide], with 2 nM; and `CCNC(=O)c1ccc(-n2cnc3c(NCCC(F)(F)F)cc(Oc4cccc(F)c4OC)cc32)cc1C` [Example 71, N-ethyl-4-{6-(3-fluoro-2-methoxyphenoxy)-4-[(3,3,3-trifluoropropyl)amino]-1H-benzimidazol-1-yl}-2-methylbenzamide], with 28.5 nM. Consider `CNC(=O)c1ccc(-n2cnc3c(NCCC(F)(F)F)cc(Oc4cccc(F)c4OC)cc32)cc1C` [Example 72, 4-{6-(3-fluoro-2-methoxyphenoxy)-4-[(3,3,3-trifluoropropyl)amino]-1H-benzimidazol-1-yl}-N,2-dimethylbenzamide], for which the IC50 came out at 33 nM. Next, `COc1cc(C#N)ccc1Oc1cc(NCCC(F)(F)F)c2ncn(-c3ccc(C(=O)NC4CC4)c(C)c3)c2c1` [Example 73, 4-{6-(4-cyano-2-methoxyphenoxy)-4-[(3,3,3-trifluoropropyl)amino]-1H-benzimidazol-1-yl}-N-cyclopropyl-2-methylbenzamide]: 52.2 nM; `Cc1cc(-n2cnc3c(NCCC(F)(F)F)cc(Oc4ccc(S(C)(=O)=O)cc4)cc32)ccc1C(=O)NC1CC1` [Example 74, N-cyclopropyl-2-methyl-4-{6-[4-(methylsulfonyl)phenoxy]-4-[(3,3,3-trifluoropropyl)amino]-1H-benzimidazol-1-yl}benzamide]: 6.4 nM. Then `Cc1cc(-n2cnc3c(NCCC(F)(F)F)cc(Oc4ccc(-c5ncco5)cc4)cc32)ccc1C(=O)NC1CC1` [Example 75, N-cyclopropyl-2-methyl-4-{6-[4-(1,3-oxazol-2-yl)phenoxy]-4-[(3,3,3-trifluoropropyl)amino]-1H-benzimidazol-1-yl}benzamide], with 21.9 nM; and `Cc1cc(-n2cnc3c(NCCC(F)(F)F)cc(Oc4ccc(F)c(C(F)(F)F)c4)cc32)ccc1C(=O)NC1CC1` [Example 76, N-cyclopropyl-4-{6-[4-fluoro-3-(trifluoromethyl)phenoxy]-4-[(3,3,3-trifluoropropyl)amino]-1H-benzimidazol-1-yl}-2-methylbenzamide], with 7.2 nM. Then `Cc1cc(-n2cnc3c(NCCC(F)(F)F)cc(Oc4cccc(C#N)c4)cc32)ccc1C(=O)NC1CC1` [Example 77, 4-{6-(3-cyanophenoxy)-4-[(3,3,3-trifluoropropyl)amino]-1H-benzimidazol-1-yl}-N-cyclopropyl-2-methylbenzamide], with 1 nM; and `Cc1cc(-n2cnc3c(NCCC(F)(F)F)cc(Oc4ccc(-n5cncn5)cc4)cc32)ccc1C(=O)NC1CC1` [Example 78, N-cyclopropyl-2-methyl-4-{6-[4-(1H-1,2,4-triazol-1-yl)phenoxy]-4-[(3,3,3-trifluoropropyl)amino]-1H-benzimidazol-1-yl}benzamide], with 11 nM; and `Cc1cc(-n2cnc3c(NCCC(F)(F)F)cc(Oc4cccc(C(=O)NC5CC5)c4)cc32)ccc1C(=O)NC1CC1` [Example 79, N-cyclopropyl-4-{6-[3-(cyclopropylcarbamoyl)phenoxy]-4-[(3,3,3-trifluoropropyl)amino]-1H-benzimidazol-1-yl}-2-methylbenzamide], with 3.9 nM. For `Cc1cc(-n2cnc3c(NCCC(F)(F)F)cc(Nc4ccccc4O)cc32)ccc1C(=O)NC1CC1` [Example 82, N-cyclopropyl-4-{6-[(2-hydroxyphenyl)amino]-4-[(3,3,3-trifluoropropyl)amino]-1H-benzimidazol-1-yl}-2-methylbenzamide], the IC50 was determined as 3.9 nM. Turning to `Cc1cc(-n2cnc3c(NCCC(F)(F)F)cc(Oc4ccc(O)c(F)c4)cc32)ccc1C(=O)NC1CC1` [Example 83, N-cyclopropyl-4-{6-(3-fluoro-4-hydroxyphenoxy)-4-[(3,3,3-trifluoropropyl)amino]-1H-benzimidazol-1-yl}-2-methylbenzamide], the IC50 was 0.7 nM.
